Targets include PKNB(M.tuberculosis) (Mycobacterium tuberculosis, UniProt P9WI81); SIK2 (Homo sapiens, UniProt Q9H0K1); EPHA8 (Homo sapiens, UniProt P29322); MARK2 (Homo sapiens, UniProt Q7KZI7); CSF1R (Homo sapiens, UniProt P07333); KIT(L576P) (Homo sapiens, UniProt P10721, L576P); MST1R (Homo sapiens, UniProt Q04912); CDK8 (Homo sapiens, UniProt P49336); CDKL1 (Homo sapiens, UniProt Q00532); EPHA4 (Homo sapiens, UniProt P54764); FLT3(K663Q) (Homo sapiens, UniProt P36888, K663Q); ERBB4 (Homo sapiens, UniProt Q15303); EGFR(L858R) (Homo sapiens, UniProt P00533, L858R); RIOK1 (Homo sapiens, UniProt Q9BRS2); ERN1 (Homo sapiens, UniProt O75460); MAP3K1 (Homo sapiens, UniProt Q13233); PIK3CA(M1043I) (Homo sapiens, UniProt P42336, M1043I); RIOK3 (Homo sapiens, UniProt O14730); RAF1 (Homo sapiens, UniProt P04049).

Common to all, as to assay: biochemical
Set-up in all cases: KINOMEscan active-site competition binding, percent of control (100 = no competition)
Holding throughout (details): competition binding, percent control

The target of another experiment is T1, VEGFR2 (Homo sapiens, UniProt P35968).
T1 construct: gene KDR

The target in a further experiment is T2, OSR1 (Homo sapiens, UniProt O95747).
T2 construct: gene OXSR1

Another experiment has as its target T3, ABL1-phosphorylated (Homo sapiens, UniProt P00519).
T3 construct: phosphorylated

Experiment [1] addresses T4, TYK2(JH1domain-catalytic) (Homo sapiens, UniProt P29597).
T4 construct: JH1domain-catalytic

Drawing on paper PMC4770715, “LIM kinase inhibitors disrupt mitotic microtubule organization and impair tumor cell proliferation” (Oncotarget, 2015), this text covers remaining binding for two molecules.

Sequence of PKNB(M.tuberculosis) (P9WI81 whole entry): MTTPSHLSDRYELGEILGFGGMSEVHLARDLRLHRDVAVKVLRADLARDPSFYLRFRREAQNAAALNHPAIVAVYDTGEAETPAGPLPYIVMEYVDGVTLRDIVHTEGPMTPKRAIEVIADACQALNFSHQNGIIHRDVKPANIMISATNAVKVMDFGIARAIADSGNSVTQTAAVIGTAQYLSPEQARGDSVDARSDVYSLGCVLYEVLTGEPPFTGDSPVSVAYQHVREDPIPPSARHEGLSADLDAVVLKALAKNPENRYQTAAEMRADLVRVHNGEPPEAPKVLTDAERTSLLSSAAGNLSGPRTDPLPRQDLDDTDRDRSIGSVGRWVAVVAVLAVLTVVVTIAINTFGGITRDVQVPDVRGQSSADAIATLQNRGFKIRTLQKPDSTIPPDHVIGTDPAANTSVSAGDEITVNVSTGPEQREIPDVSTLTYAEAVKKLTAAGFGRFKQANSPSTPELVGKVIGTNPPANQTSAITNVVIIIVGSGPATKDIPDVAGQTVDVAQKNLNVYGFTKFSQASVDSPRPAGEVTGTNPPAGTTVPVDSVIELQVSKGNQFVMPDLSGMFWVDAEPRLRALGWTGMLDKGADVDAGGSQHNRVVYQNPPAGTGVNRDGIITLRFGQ
Sequence of EPHA4 (P54764 whole entry): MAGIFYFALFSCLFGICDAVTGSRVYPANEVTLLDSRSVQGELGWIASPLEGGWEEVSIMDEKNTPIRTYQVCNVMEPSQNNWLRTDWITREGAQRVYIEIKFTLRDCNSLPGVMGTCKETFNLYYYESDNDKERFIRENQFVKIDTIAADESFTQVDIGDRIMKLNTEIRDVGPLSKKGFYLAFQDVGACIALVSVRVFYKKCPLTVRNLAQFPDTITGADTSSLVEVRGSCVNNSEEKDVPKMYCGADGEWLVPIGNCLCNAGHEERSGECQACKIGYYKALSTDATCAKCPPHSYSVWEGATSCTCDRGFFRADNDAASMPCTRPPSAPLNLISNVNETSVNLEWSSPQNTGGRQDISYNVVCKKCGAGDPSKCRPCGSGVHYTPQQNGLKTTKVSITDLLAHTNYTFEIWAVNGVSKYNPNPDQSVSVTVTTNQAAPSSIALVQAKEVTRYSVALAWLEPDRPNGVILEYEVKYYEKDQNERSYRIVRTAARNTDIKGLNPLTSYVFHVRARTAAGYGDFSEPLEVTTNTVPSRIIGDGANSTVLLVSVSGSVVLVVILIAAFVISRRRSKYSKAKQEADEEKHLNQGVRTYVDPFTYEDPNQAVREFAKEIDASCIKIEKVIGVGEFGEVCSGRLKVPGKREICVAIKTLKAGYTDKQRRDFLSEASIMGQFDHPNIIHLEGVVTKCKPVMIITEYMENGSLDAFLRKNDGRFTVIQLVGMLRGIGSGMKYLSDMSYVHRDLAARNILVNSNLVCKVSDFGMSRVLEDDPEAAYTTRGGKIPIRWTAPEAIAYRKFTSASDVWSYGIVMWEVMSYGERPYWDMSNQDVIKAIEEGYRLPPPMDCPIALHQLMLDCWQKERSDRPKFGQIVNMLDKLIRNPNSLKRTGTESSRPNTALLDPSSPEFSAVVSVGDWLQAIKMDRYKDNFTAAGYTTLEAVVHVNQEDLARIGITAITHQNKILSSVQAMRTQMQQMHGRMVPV
Sequence of MAP3K1 (Q13233 whole entry): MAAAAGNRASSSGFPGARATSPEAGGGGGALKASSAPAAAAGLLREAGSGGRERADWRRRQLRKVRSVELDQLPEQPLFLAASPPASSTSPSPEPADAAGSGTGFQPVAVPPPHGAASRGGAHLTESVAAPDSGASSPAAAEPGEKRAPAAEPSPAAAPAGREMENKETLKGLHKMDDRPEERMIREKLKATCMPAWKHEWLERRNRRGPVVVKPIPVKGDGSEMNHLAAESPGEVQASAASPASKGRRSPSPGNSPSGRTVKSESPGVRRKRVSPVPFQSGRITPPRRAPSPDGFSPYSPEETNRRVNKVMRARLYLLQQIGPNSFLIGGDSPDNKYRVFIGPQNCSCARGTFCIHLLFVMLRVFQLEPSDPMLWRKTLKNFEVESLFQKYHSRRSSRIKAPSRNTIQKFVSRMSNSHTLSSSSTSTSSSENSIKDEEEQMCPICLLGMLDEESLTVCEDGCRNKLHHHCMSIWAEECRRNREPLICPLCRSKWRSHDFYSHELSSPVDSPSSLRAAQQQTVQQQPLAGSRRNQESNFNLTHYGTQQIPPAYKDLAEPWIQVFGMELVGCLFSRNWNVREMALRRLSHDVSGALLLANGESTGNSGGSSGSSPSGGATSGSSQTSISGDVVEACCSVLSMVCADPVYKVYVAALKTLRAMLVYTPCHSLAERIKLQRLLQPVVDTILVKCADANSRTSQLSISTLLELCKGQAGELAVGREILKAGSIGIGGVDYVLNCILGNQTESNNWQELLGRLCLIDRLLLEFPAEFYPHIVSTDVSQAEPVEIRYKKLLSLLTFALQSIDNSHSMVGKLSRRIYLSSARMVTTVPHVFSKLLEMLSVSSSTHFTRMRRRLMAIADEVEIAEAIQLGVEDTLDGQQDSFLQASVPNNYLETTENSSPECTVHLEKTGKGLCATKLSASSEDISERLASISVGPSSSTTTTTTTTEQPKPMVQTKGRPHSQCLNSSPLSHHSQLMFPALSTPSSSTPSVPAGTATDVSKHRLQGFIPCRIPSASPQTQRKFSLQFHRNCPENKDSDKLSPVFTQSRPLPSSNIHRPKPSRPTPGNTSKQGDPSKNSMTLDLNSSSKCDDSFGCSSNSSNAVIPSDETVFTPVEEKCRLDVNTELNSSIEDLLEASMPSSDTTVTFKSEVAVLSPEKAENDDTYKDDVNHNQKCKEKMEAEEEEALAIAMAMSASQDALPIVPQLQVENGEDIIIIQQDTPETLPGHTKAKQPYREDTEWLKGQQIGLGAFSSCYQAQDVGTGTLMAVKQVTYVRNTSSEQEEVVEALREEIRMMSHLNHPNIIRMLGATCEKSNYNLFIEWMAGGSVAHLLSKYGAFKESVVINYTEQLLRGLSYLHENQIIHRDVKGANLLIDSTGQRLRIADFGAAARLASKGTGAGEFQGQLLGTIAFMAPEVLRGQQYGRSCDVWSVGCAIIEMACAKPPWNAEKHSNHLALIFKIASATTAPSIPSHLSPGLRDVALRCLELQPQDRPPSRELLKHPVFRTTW
T3 sequence (P00519 whole entry): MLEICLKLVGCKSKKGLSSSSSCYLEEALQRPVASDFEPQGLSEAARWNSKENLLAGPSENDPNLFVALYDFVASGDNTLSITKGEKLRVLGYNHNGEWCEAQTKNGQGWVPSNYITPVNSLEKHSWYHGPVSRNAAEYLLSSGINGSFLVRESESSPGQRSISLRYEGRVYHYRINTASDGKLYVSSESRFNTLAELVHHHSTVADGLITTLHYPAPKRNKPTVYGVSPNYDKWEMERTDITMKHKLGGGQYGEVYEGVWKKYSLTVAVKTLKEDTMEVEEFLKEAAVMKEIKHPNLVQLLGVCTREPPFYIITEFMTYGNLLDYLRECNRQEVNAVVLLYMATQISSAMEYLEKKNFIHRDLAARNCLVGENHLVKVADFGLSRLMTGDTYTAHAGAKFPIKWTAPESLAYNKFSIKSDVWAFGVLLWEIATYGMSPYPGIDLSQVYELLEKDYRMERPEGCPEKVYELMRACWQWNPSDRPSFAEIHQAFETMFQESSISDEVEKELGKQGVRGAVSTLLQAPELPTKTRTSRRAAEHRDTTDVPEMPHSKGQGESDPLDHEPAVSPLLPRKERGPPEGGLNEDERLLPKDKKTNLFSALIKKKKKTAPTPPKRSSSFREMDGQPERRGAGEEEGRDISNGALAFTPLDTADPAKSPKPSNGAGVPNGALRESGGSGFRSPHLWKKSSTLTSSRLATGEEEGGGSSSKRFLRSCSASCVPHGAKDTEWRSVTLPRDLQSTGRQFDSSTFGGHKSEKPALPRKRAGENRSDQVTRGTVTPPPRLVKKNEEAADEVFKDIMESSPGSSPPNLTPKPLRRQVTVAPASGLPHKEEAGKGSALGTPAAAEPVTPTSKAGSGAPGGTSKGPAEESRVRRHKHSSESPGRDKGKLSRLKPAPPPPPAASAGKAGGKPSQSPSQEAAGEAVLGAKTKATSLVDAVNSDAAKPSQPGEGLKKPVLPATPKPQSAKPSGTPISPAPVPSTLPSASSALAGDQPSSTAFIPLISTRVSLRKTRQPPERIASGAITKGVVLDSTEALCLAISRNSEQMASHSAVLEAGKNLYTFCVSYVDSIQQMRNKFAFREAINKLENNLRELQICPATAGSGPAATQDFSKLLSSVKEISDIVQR
T2 sequence (O95747 whole entry): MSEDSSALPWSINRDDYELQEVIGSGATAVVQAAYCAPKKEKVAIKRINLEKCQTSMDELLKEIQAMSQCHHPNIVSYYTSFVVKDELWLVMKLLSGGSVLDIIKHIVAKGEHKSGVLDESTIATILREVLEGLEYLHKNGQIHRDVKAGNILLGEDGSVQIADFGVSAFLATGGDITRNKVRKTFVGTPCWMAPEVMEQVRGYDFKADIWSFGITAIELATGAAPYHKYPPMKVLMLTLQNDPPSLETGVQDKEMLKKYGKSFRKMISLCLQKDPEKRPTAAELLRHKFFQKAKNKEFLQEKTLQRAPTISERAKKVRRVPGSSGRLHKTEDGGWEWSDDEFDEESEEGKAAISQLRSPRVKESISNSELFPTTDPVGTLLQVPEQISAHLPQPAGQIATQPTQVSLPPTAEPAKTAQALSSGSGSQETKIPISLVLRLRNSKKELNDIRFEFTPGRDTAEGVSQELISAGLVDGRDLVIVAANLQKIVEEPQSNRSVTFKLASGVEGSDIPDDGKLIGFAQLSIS

As to `COc1ccc(-c2cnccc2-c2cnc(NC(=O)C(C)C)s2)c(C(F)(F)F)c1` [CRT0105446, N-{5-[3-(4-Methoxy-2-trifluoromethyl-phenyl)-pyridin-4-yl]-hiazol-2-yl}-isobutyramide], the remaining binding at 10 µM at PKNB(M.tuberculosis) was determined as 82%; on SIK2, 78%; on VEGFR2, 73%; on EPHA8, 100%; on MARK2, 63%; at OSR1, 100%. Moreover, the remaining binding at 10 µM at CSF1R stood at 51%; on KIT(L576P) it was 36%; at MST1R, 100%; on CDK8, 39%; at CDKL1 it was 80%; at EPHA4 it was 100%. Further, the remaining binding at 10 µM at ABL1-phosphorylated worked out at 77%; on FLT3(K663Q) it was 34%; on ERBB4, 100%; in [1], 72%; at EGFR(L858R) it was 76%; at RIOK1, 97%. Besides, the remaining binding at 10 µM on ERN1 was found to be 87%; at MAP3K1, 88%; at PIK3CA(M1043I), 100%; on RIOK3, 94%; at RAF1, 100%.
`Cc1ccc(-c2cnccc2-c2cnc(Nc3ccc(O)cc3)s2)c(Cl)c1` [CRT0105950, 4-{5-[3-(2-Chloro-4-methyl-phenyl)-pyridin-4-yl]-thiazol-2-ylamino}-phenol]: the remaining binding at 10 µM at PKNB(M.tuberculosis) was found to be 19%; on SIK2, 7.1%; at VEGFR2, 45%; on EPHA8, 88%; on MARK2, 28%; on OSR1, 84%. Also, the remaining binding at 10 µM at CSF1R was 1.2%; on KIT(L576P), 0.4%; at MST1R it was 92%; on CDK8, 11%; at CDKL1 it was 77%; at EPHA4, 94%. The remaining binding at 10 µM on ABL1-phosphorylated was 70%; at FLT3(K663Q), 0.5%; at ERBB4 it was 94%; in [1], 25%; on EGFR(L858R), 69%; at RIOK1, 65%. Also, the remaining binding at 10 µM at ERN1 amounted to 68%; on MAP3K1, 71%; on PIK3CA(M1043I), 100%; at RIOK3, 66%; at RAF1, 85%.
